Our source for the DC50 and Dmax values is US12448389B2, “BRM targeting compounds and associated methods of use” (Prelude Therapeutics Incorporated, priority 2020, dated 2025).

In one experiment the target is T1, SMARCA4-HiBiT (Homo sapiens, UniProt P51532).
T1 construct: SMARCA4-HiBiT knock-in Hela monoclonal cell (CS3023226); host or cells: HeLa monoclonal knock-in line (CRISPR HiBiT knock-in at the endogenous locus, heterozygous)
The experiment can be described thus: SMARCA4 HiBiT degradation assay in HeLa cells. Type of experiment: cell-based. The conditions noted are these: 18 hours incubation; for DC50: read-out: HeLa-HiBit-SM4 DC50; for Dmax: HeLa, read-out: HeLa-HiBit-SM4 Dmax (%). The gist of the method: (§1)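 HeLa monoclonal lines with heterozygous HiBiT knock-in were seeded at 2500 cells/well in EMEM with 10% FBS and treated with compound for 18 h at 37 °C. Remaining tagged protein was measured by Nano-Glo HiBiT lytic luminescence after 30–60 min at RT, and values came from curve fitting.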

The next experiment concerns the target T2, SMARCA2-HiBiT (Homo sapiens, UniProt P51531).
T2 construct: SMARCA2-HiBiT knock-in Hela monoclonal cell (CS302366); host or cells: HeLa monoclonal knock-in line (CRISPR HiBiT knock-in at the endogenous locus, heterozygous)
Briefly: SMARCA2 HiBiT degradation assay in HeLa cells. The format is cell-based. The note with it: 18 hours incubation; for DC50: read-out: HeLa_HiBit-SM2 DC50; for Dmax: HeLa, read-out: HeLa-HiBit-SM2 Dmax (%). The gist of the method: as §1

T1 sequence (P51532 whole entry): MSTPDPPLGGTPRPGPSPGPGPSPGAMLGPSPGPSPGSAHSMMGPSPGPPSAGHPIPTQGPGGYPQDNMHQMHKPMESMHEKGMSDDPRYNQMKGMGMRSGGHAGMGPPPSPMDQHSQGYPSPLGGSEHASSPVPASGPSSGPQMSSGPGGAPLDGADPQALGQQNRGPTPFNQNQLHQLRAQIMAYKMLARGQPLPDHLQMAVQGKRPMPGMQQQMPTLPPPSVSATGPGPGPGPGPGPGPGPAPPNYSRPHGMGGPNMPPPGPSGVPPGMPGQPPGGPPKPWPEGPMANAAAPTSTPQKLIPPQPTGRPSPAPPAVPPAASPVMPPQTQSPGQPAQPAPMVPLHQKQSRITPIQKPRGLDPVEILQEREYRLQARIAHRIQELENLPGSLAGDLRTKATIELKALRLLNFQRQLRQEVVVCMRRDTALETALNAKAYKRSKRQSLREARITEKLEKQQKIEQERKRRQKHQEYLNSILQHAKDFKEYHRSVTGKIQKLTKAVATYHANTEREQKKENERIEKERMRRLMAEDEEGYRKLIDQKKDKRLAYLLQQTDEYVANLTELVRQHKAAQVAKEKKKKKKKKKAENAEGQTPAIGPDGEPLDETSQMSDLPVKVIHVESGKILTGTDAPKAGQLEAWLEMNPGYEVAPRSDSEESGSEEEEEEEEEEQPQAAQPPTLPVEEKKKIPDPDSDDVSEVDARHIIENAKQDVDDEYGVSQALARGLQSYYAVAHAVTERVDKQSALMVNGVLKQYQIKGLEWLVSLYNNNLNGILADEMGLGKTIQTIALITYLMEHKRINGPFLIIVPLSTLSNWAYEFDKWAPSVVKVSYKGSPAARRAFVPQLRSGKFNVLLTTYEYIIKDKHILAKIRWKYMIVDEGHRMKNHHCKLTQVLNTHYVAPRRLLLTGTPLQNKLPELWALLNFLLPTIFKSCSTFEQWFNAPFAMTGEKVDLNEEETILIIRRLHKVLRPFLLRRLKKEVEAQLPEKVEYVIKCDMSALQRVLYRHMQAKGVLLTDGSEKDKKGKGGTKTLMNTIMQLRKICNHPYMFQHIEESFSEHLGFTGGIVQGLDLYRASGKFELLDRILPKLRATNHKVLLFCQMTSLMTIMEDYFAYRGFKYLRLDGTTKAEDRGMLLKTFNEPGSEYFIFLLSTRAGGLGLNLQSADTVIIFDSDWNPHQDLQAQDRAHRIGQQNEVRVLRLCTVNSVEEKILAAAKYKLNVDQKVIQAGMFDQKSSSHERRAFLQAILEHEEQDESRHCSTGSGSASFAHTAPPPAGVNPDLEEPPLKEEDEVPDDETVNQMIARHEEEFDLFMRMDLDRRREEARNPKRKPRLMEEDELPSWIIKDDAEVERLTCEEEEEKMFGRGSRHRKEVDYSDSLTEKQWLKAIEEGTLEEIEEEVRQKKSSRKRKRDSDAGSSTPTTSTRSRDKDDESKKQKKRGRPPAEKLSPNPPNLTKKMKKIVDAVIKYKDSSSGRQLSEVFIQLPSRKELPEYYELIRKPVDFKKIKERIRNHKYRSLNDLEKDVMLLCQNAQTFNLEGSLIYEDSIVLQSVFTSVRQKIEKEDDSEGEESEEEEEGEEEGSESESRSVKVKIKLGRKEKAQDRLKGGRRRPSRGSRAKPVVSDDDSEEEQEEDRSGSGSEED
T2 sequence (P51531 whole entry): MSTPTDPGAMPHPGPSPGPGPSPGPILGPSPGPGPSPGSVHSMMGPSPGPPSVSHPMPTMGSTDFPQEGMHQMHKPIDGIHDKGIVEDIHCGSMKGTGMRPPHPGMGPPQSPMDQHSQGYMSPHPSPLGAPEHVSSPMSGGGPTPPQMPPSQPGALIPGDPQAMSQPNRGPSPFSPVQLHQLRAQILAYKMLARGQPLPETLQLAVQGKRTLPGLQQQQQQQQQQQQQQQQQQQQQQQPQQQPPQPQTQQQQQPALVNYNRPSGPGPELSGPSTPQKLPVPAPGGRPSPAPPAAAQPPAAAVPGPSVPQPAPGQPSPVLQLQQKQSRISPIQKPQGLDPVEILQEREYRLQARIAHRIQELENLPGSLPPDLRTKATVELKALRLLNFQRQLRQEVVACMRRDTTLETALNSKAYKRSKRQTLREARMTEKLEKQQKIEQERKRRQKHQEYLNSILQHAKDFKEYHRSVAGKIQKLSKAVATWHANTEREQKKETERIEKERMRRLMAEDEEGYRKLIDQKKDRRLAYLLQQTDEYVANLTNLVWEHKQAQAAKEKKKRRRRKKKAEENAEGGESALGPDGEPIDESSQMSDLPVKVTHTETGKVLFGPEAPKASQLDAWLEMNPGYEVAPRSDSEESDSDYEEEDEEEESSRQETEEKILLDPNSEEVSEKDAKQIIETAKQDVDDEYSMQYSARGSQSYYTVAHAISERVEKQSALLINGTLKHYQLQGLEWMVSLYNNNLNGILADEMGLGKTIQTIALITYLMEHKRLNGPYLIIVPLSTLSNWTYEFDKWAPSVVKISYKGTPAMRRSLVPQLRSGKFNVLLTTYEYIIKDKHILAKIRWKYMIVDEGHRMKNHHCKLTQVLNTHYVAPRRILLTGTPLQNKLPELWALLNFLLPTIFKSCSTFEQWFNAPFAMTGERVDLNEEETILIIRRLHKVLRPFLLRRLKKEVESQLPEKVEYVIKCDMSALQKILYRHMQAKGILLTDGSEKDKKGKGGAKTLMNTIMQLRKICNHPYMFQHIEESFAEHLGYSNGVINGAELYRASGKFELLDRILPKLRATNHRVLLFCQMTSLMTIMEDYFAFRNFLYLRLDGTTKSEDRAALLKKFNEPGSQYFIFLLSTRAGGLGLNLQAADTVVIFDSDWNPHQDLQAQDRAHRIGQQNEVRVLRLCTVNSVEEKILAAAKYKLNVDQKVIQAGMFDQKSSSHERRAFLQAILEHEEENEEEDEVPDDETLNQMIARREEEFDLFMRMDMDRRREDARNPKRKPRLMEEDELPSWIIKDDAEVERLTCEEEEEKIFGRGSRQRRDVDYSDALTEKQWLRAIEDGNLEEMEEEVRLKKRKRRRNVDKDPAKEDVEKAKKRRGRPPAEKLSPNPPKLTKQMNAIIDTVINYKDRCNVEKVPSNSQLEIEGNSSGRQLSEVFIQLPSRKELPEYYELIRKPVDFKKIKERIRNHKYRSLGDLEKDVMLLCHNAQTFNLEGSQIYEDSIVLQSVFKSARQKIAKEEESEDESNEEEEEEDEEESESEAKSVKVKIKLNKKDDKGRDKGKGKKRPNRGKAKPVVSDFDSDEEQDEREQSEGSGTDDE

As for `O=C1CCC(N2C(=O)c3cccc(N4CCN(CCCN5CCC(N6CCN7c8cc(-c9ccccc9O)nnc8NC[C@H]7C6)CC5)CC4)c3C2=O)C(=O)N1` (stereo partly drawn) [Example 69, 2-(2,6-dioxopiperidin-3-yl)-4-(4-(3-(4-((S)-2-(2-hydroxyphenyl)-5,6,6a,7,9,10-hexahydro-8H-pyrazino[1′,2′:4,5]pyrazino[2,3-c]pyridazin-8-yl)piperidin-1-yl)propyl)piperazin-1-yl)isoindoline-1,3-dione], the DC50 at SMARCA4-HiBiT and on SMARCA2-HiBiT was below 0.01 µM in each case. The Dmax at SMARCA4-HiBiT and at SMARCA2-HiBiT was above 85% each time.
Take `O=C1CCC(N2C(=O)c3cccc(NCCCN4CCC(N5CCN6c7cc(-c8ccccc8O)nnc7NC[C@H]6C5)CC4)c3C2=O)C(=O)N1` (stereo partly drawn) [Example 70, 2-(2,6-dioxopiperidin-3-yl)-4-((3-(4-((S)-2-(2-hydroxyphenyl)-5,6,6a,7,9,10-hexahydro-8H-pyrazino[1′,2′:4,5]pyrazino[2,3-c]pyridazin-8-yl)piperidin-1-yl)propyl)amino)isoindoline-1,3-dione]: at SMARCA4-HiBiT, the DC50 was below 0.01 µM and the Dmax is above 85%. Moreover, on SMARCA2-HiBiT, the DC50 is below 0.01 µM and the Dmax is above 85%.
In the case of `C[C@@H](CN1CCC(N2CCN3c4cc(-c5ccccc5O)nnc4NC[C@H]3C2)CC1)Nc1cccc2c1C(=O)N(C1CCC(=O)NC1=O)C2=O` (stereo partly drawn) [Example 71, 2-(2,6-dioxopiperidin-3-yl)-4-(((S)-1-(4-((S)-2-(2-hydroxyphenyl)-5,6,6a,7,9,10-hexahydro-8H-pyrazino[1′,2′:4,5]pyrazino[2,3-c]pyridazin-8-yl)piperidin-1-yl)propan-2-yl)ammo)isoindoline-1,3-dione], on SMARCA4-HiBiT, the DC50 is below 0.01 µM and the greatest degradation seen (Dmax) lay in the range of 75 to 85%. Moreover, on SMARCA2-HiBiT, the DC50 was below 0.01 µM and the Dmax lay within 75 to 85%.
Turning to `O=C1CCC(N2C(=O)c3cccc(N4CCC(CCCN5CCC6(CCC(N7CCN8c9cc(-c%10ccccc%10O)nnc9NC[C@H]8C7)CC6)CC5)CC4)c3C2=O)C(=O)N1` (stereo partly drawn) [Example 72, 2-(2,6-dioxopiperidin-3-yl)-4-(4-(3-(9-((S)-2-(2-hydroxyphenyl)-5,6,6a,7,9,10-hexahydro-8H-pyrazino[1′,2′:4,5]pyrazino[2,3-c]pyridazin-8-yl)-3-azaspiro[5.5]undecan-3-yl)propyl)piperidin-1-yl)isoindoline-1,3-dione], on SMARCA4-HiBiT, the DC50 is below 0.01 µM and the greatest degradation seen (Dmax) fell in the range of 50 to 75%. In addition, on SMARCA2-HiBiT, the DC50 was below 0.01 µM and the Dmax lay in the range of 75 to 85%.
For `O=C1CCC(N2C(=O)c3cccc(N4CCC(CCCN5CCC(N6CCN7c8cc(-c9ccccc9O)nnc8NC[C@H]7C6)C(F)C5)CC4)c3C2=O)C(=O)N1` (stereo partly drawn) [Example 73, 2-(2,6-dioxopiperidin-3-yl)-4-(4-(3-(3-fluoro-4-((S)-2-(2-hydroxyphenyl)-5,6,6a,7,9,10-hexahydro-8H-pyrazino[1′,2′:4,5]pyrazino[2,3-c]pyridazin-8-yl)piperidin-1-yl)propyl)piperidin-1-yl)isoindoline-1,3-], on SMARCA4-HiBiT, the DC50 is below 0.01 µM and the Dmax lay within 50 to 75%. Besides, at SMARCA2-HiBiT, the DC50 was below 0.01 µM and the Dmax is 75 to 85%.
Take `O=C1CCC(N2C(=O)c3ccc(N4CCC(CN5CCO[C@@H](CN6CCN7c8cc(-c9ccccc9O)nnc8NC[C@H]7C6)C5)CC4)cc3C2=O)C(=O)N1` (stereo partly drawn) [Example 74]: the DC50 at SMARCA4-HiBiT and on SMARCA2-HiBiT was below 0.01 µM in each case. Further, the Dmax at SMARCA4-HiBiT and at SMARCA2-HiBiT was above 85% each time.
As for `O=C1CCC(N2C(=O)c3ccc(N4CCC(CN5CCO[C@H](CN6CCN7c8cc(-c9ccccc9O)nnc8NC[C@H]7C6)C5)CC4)cc3C2=O)C(=O)N1` (stereo partly drawn) [Example 75, 2-(2,6-dioxopiperidin-3-yl)-5-(4-(((R)-2-(((S)-2-(2-hydroxyphenyl)-5,6,6a,7,9,10-hexahydro-8H-pyrazino[1′,2′:4,5]pyrazino[2,3-c]pyridazin-8-yl)methyl)morpholino)methyl)piperidin-1-yl)isoindoline-1,3-dione], on SMARCA4-HiBiT, the DC50 was below 0.01 µM and the Dmax lay within 75 to 85%. Also, on SMARCA2-HiBiT, the DC50 was below 0.01 µM and the Dmax was 75 to 85%.
For the molecule `O=C1CCC(N2C(=O)c3ccc(N4CCC(N[C@H]5C[C@@H](CN6CCN7c8cc(-c9ccccc9O)nnc8NC[C@H]7C6)C5)CC4)cc3C2=O)C(=O)N1` (stereo partly drawn) [Example 76, 2-(2,6-dioxopiperidin-3-yl)-5-(4-(((1R,3s)-3-(((S)-2-(2-hydroxyphenyl)-5,6,6a,7,9,10-hexahydro-8H-pyrazino[1′,2′:4,5]pyrazino[2,3-c]pyridazin-8-yl)methyl)cyclobutyl)amino)piperidin-1-yl)isoindoline-1,3-dione], at SMARCA4-HiBiT, the DC50 is below 0.01 µM and the maximal degradation (Dmax) was above 85%. At SMARCA2-HiBiT, the DC50 is below 0.01 µM and the Dmax is above 85%.
Regarding `O=C1CCC(N2C(=O)c3ccc(N4CCC(N[C@H]5C[C@H](CN6CCN7c8cc(-c9ccccc9O)nnc8NC[C@H]7C6)C5)CC4)cc3C2=O)C(=O)N1` (stereo partly drawn) [Example 77, 2-(2,6-dioxopiperidin-3-yl)-5-(4-(((1S,3r)-3-(((S)-2-(2-hydroxyphenyl)-5,6,6a,7,9,10-hexahydro-8H-pyrazino[1′,2′:4,5]pyrazino[2,3-c]pyridazin-8-yl)methyl)cyclobutyl)amino)piperidin-1-yl)isoindoline-1,3-dione], the DC50 at SMARCA4-HiBiT and on SMARCA2-HiBiT was below 0.01 µM throughout. The greatest degradation seen (Dmax) on SMARCA4-HiBiT and on SMARCA2-HiBiT was above 85% throughout.
In the case of `O=C1CCC(N2C(=O)c3ccc(N4CCC(CN[C@H]5C[C@@H](CN6CCN7c8cc(-c9ccccc9O)nnc8NC[C@H]7C6)C5)CC4)cc3C2=O)C(=O)N1` (stereo partly drawn) [Example 78, 2-(2,6-dioxopiperidin-3-yl)-5-(4-((((1R,3s)-3-(((S)-2-(2-hydroxyphenyl)-5,6,6a,7,9,10-hexahydro-8H-pyrazino[1′,2′:4,5]pyrazino[2,3-c]pyridazin-8-yl)methyl)cyclobutyl)amino)methyl)piperidin-1-yl)isoindolme-1,3-dione], the DC50 on SMARCA4-HiBiT and on SMARCA2-HiBiT was below 0.01 µM each time. In addition, the Dmax at SMARCA4-HiBiT and at SMARCA2-HiBiT was above 85% in each case.
Turning to `O=C1CCC(N2C(=O)c3ccc(N4CCCC(CN5CCO[C@@H](CN6CCN7c8cc(-c9ccccc9O)nnc8NC[C@H]7C6)C5)C4)cc3C2=O)C(=O)N1` (stereo partly drawn) [Example 79, 2-(2,6-dioxopiperidin-3-yl)-5-(3-(((S)-2-(((S)-2-(2-hydroxyphenyl)-5,6,6a,7,9,10-hexahydro-8H-pyrazino[1′,2′:4,5]pyrazino[2,3-c]pyridazin-8-yl)methyl)morpholino)methyl)piperidin-1-yl)isoindoline-1,3-dione], at SMARCA4-HiBiT, the DC50 was below 0.01 µM and the Dmax was in the range of 75 to 85%. On SMARCA2-HiBiT, the DC50 was below 0.01 µM and the Dmax lay within 75 to 85%.
In the case of `O=C1CCC(N2C(=O)c3ccc(N4CCC(CN5CCC(NC(=O)N6CCN7c8cc(-c9ccccc9O)nnc8NC[C@H]7C6)CC5)CC4)cc3C2=O)C(=O)N1` (stereo partly drawn) [Example 80, (6aS)-N-(1-((1-(2-(2,6-dioxopiperidin-3-yl)-1,3-dioxoisoindolin-5-yl)piperidin-4-yl)methyl)piperidin-4-yl)-2-(2-hydroxyphenyl)-5,6,6a,7,9,10-hexahydro-8H-pyrazino[1′,2′:4,5]pyrazino[2,3-c]pyridazine-8-carboxamide], at SMARCA4-HiBiT, the DC50 was below 0.01 µM and the Dmax is above 85%. Besides, at SMARCA2-HiBiT, the DC50 was below 0.01 µM and the Dmax was above 85%.
On to `O=C1CCC(N2C(=O)c3ccc(N4CCC(CNC56CCC(C(=O)N7CCN8c9cc(-c%10ccccc%10O)nnc9NC[C@H]8C7)(CC5)CC6)CC4)cc3C2=O)C(=O)N1` (stereo partly drawn) [Example 81, 2-(2,6-dioxopiperidin-3-yl)-5-(4-(((4-((S)-2-(2-hydroxyphenyl)-6,6a,7,8,9,10-hexahydro-5H-pyrazino[1′,2′:4,5]pyrazino[2,3-c]pyridazine-8-carbonyl)bicyclo[2.2.2]octan-1-yl)amino)methyl)piperidin-1-yl)isoindoline-1dione], for which, on SMARCA4-HiBiT, the 50% degradation concentration (DC50) was below 0.01 µM and the Dmax is 75 to 85%. For the same molecule, on SMARCA2-HiBiT, the DC50 was below 0.01 µM and the Dmax was in the range of 75 to 85%.
Take `O=C1CCC(N2C(=O)c3ccc(N4CC(CN5CCN(C(=O)N6CCN7c8cc(-c9ccccc9O)nnc8NC[C@H]7C6)CC5)C4)cc3C2=O)C(=O)N1` (stereo partly drawn) [Example 82, 2-(2,6-dioxopiperidin-3-yl)-5-(3-((4-((S)-2-(2-hydroxyphenyl)-6,6a,7,8,9,10-hexahydro-511-pyrazino[1′,2′:4,5]pyrazino[2,3-c]pyridazine-8-carbonyl)piperazin-1-yl)methyl)azetidin-1-yl) isoindoline-1,3-dione]: on SMARCA4-HiBiT, the DC50 is below 0.01 µM and the Dmax was 50 to 75%. Also, on SMARCA2-HiBiT, the DC50 is below 0.01 µM and the Dmax was in the range of 75 to 85%.
On to `O=C1CCC(N2Cc3cc(N4CCC(CN5CCC(OC(=O)N6CCN7c8cc(-c9ccccc9O)nnc8NC[C@H]7C6)CC5)CC4)ccc3C2=O)C(=O)N1` (stereo partly drawn) [Example 83, 1-((1-(2-(2,6-dioxopiperidin-3-yl)-1-oxoisoindolin-5-yl)piperidin-4-yl)methyl)piperidin-4-yl (6aS)-2-(2-hydroxyphenyl)-5,6,6a,7,9,10-hexahydro-8H-pyrazino[1′,2′:4,5]pyrazino[2,3-c]pyridazine-8-carboxylate], for which, on SMARCA4-HiBiT, the DC50 was below 0.01 µM and the Dmax fell in the range of 75 to 85%. On SMARCA2-HiBiT, the DC50 was below 0.01 µM and the Dmax was above 85%.

One may read the DC50 as the concentration at which degradation of the target reaches its halfway point. For orientation: Dmax means the greatest extent of degradation seen.
